Reference: patent EP4810052A2, “HCRHR2 SELECTIVE POLYPEPTIDES” (Gubra A/S, priority 2023, dated 2026)
Like-named read-outs stand apart in the source and are kept apart here. Starred links: 1 amine or outer side, 2 acyl side, 3 side chain; linkers in the order of their positions; H or OH if unused. Non-standard residues stand in square brackets, D forms with d. Residues, ends and D or L forms follow the SMILES beside them. Groups on a side chain read outwards from the residue. *: point of attachment. C20 diacid = O=C(O)CCCCCCCCCCCCCCCCCCC(=O)*; γGlu = O=C(O)[C@H](CCC(=O)[*:2])N[*:1]; NMeI = CC[C@H](C)[C@H](NC)C(=O)O; Nle = CCCC[C@H](N)C(=O)O; AEEA = NCCOCCOCC(=O)O; Aib = CC(C)(N)C(=O)O

Assays:
[1] = Thioflavin T fibril formation assay of purified peptides; assay type: physicochemical; parameters: key: Amyloid fibril formation detected by an increase in ThT fluorescence was denoted with "Yes"; samples without increasing ThT fluorescence hence not forming amyloid fibrils were denoted "No"
How it was run: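 Fibril formation read as rising ThT emission at 480 nm (450 nm excitation), 4 µM ThT, over 96 h at 40°C with alternating 5-min rest and 700 rpm shaking cycles, in triplicate. Samples were 200 µM compound in 50 mM phosphate at various pH values, or co-formulated at 200 µM in semaglutide product at pH 7.4.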

[2] = Chemical stability of purified peptides (RP-UHPLC main peak purity loss); assay type: physicochemical
How it was run: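 Purity loss is the drop in RP-UHPLC main-peak area fraction (215 nm detection, C8 column at 50 °C) from time zero to day 14 and/or day 28 at 40 °C. Samples held roughly 1.0 mg/ml peptide in 50 mM phosphate, pH 7.5, with other pH targets also tested.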

PK in mice = assay type: in vivo; parameters: T½ / MRT: unit: h; settings: for half-life: read-out: T½ (converted)
Procedure: Lean male NMRI/RjHan mice were obtained from JanVier (JanVier Labs, France) at 6 weeks of age. The animals were single housed under a 12/12 h dark-light cycle, light off at 3 PM. Room temperature was controlled to 22°C ± 1°C, with 60 % ± 20% humidity. Animals had ad libitum access to regular rodent chow (Altromin 1324, Brogaarden, Denmark) and tap water.
After 2 weeks of acclimatization, the animals were randomized into treatment groups (n=9 per group) based on body weight. Animals were dosed IV with one peptide and SC with another peptide (15 or 50 nmol/kg) Plasma samples were collected for PK analysis at times 0.17, 1, 3, 6, 24, 30, 48, 72 and 96 hours post dosing in a sparse sampling design with 3 mice per group per timepoint. Plasma samples were analyzed using LC-MSMS and PK parameters were estimated by Non-Compartmental Analysis (NCA).

[3] = pH 7.5, 40°C, 14 days, first value of cell
[4] = pH 7.5, 40°C, 28 days, second value of cell
[5] = male, NMRI/RjHan, in vivo, iv, Mouse, 50 nmol/kg i.v.
[6] = male, NMRI/RjHan, in vivo, sc, Mouse, 50 nmol/kg s.c.

SMILES | Fibrillation (pH 7.5) ([1]; pH 7.5) | Chemical stability at pH 7.5 after 14 days at 40°C (% degradation) ([2]; pH 7.5, 14 days, 40°C) | Chemical stability at pH 7.5 after 28 days at 40°C (% degradation) ([2]; pH 7.5, 28 days, 40°C) | MRT (PK in mice; Mouse) | T½ (PK in mice; Mouse) | Fibrillation (pH 7.5) ([1]; pH 7.5, ThT assay) | Chemical stability at pH 7.5 after 14 days at 40°C (% degradation) [2, 3] | Chemical stability at pH 7.5 after 28 days at 40°C (% degradation) [2, 4] | bioavailability (PK in mice; male, NMRI, mouse, in vivo, sc) | clearance (PK in mice; [5]) | half-life (PK in mice; [5]) | Cmax (PK in mice; [6]) | Tmax (PK in mice; [6]) | half-life (PK in mice; [6])
CCCC[C@H](NC(=O)[C@@H](NC(=O)[C@H](CCC(=O)O)NC(=O)[C@H](C)NC(=O)[C@H](CC(N)=O)NC(=O)C(C)(C)NC(=O)[C@H](CCCCNC(=O)COCCOCCNC(=O)COCCOCCNC(=O)CC[C@H](NC(=O)CC[C@H](NC(=O)CCCCCCCCCCCCCCCCCCC(=O)O)C(=O)O)C(=O)O)NC(=O)[C@H](C)NC(=O)[C@H](CCC(N)=O)NC(=O)[C@H](CCC(=O)O)NC(=O)[C@H](CCCNC(=N)N)NC(=O)[C@H](C)NC(=O)[C@H](C)NC(=O)[C@H](CCCNC(=N)N)NC(=O)[C@H](C)NC(=O)[C@H](CCCNC(=N)N)NC(=O)[C@H](C)NC(=O)[C@H](CCC(N)=O)NC(=O)[C@H](CO)NC(=O)[C@H](CC(C)C)NC(=O)[C@H](CC(C)C)NC(=O)[C@@H](NC(=O)[C@H](CCC(N)=O)NC(=O)[C@H](CC(C)C)NC(=O)[C@H](CC(C)C)NC(=O)CNC(=O)[C@@H](NC(=O)[C@@H]1CCCN1C(=O)[C@@H](NC(=O)[C@H](CC(=O)O)NC(=O)[C@H](CC(C)C)NC(=O)[C@H](CO)NC(=O)[C@H](CC(C)C)NC(=O)[C@@H](NC(=O)[C@@H](NC)[C@@H](C)CC)C(C)C)C(C)C)[C@@H](C)CC)[C@@H](C)CC)[C@@H](C)CC)C(=O)N[C@@H](C)C(=O)N[C@@H](CCC(=O)O)C(=O)N[C@H](C(N)=O)C(C)C [compound 132] (H-[NMeI]VLSLDVPIGLLQILLSQARARAAREQAK([AEEA-AEEA-γGlu-γGlu-C20 diacid])[Aib]NAEI[Nle]AEV-NH2) | No | -1.6% | -1.3% | 16 | 11.2 | – | – | – | – | – | – | – | – | –
CC[C@H](C)[C@H](N)C(=O)N[C@H](C(=O)N[C@@H](CC(C)C)C(=O)N[C@@H](CO)C(=O)N[C@@H](CC(C)C)C(=O)N[C@@H](CC(=O)O)C(=O)N[C@H](C(=O)N1CCC[C@H]1C(=O)N[C@H](C(=O)NCC(=O)N[C@@H](CC(C)C)C(=O)N[C@@H](CC(C)C)C(=O)N[C@@H](CCC(N)=O)C(=O)N[C@H](C(=O)N[C@@H](CC(C)C)C(=O)N[C@@H](CC(C)C)C(=O)N[C@@H](CCC(=O)O)C(=O)N[C@@H](CCC(N)=O)C(=O)N[C@@H](C)C(=O)N[C@@H](CCCNC(=N)N)C(=O)N[C@@H](C)C(=O)N[C@@H](CCCNC(=N)N)C(=O)N[C@@H](C)C(=O)N[C@@H](C)C(=O)N[C@@H](CCCNC(=N)N)C(=O)N[C@@H](CCC(=O)O)C(=O)N[C@@H](CCC(N)=O)C(=O)N[C@@H](C)C(=O)N[C@H](C(=O)N[C@@H](CCCCNC(=O)COCCOCCNC(=O)COCCOCCNC(=O)CC[C@H](NC(=O)CC[C@H](NC(=O)CCCCCCCCCCCCCCCCCCC(=O)O)C(=O)O)C(=O)O)C(=O)N[C@@H](CC(N)=O)C(=O)N[C@@H](C)C(=O)N[C@@H](CCC(=O)O)C(=O)N[C@H](C(=O)N[C@@H](CC(C)C)C(=O)N[C@@H](C)C(=O)N[C@@H](CCC(=O)O)C(=O)N[C@H](C(N)=O)C(C)C)[C@@H](C)CC)[C@@H](C)O)[C@@H](C)CC)[C@@H](C)CC)C(C)C)C(C)C [SEQ ID NO: 4] (H-IVLSLDVPIGLLQILLEQARARAAREQATK([AEEA-AEEA-γGlu-γGlu-C20 diacid])NAEILAEV-NH2) | – | – | – | 18.2 | 14.8 | No | -1.3% | -3.9% | – | – | – | – | – | –
CC[C@H](C)[C@H](N)C(=O)N[C@H](C(=O)N[C@@H](CC(C)C)C(=O)N[C@@H](CO)C(=O)N[C@@H](CC(C)C)C(=O)N[C@@H](CC(=O)O)C(=O)N[C@H](C(=O)N1CCC[C@H]1C(=O)N[C@H](C(=O)NCC(=O)N[C@@H](CC(C)C)C(=O)N[C@@H](CC(C)C)C(=O)N[C@@H](CCC(N)=O)C(=O)N[C@H](C(=O)N[C@@H](CC(C)C)C(=O)N[C@@H](CC(C)C)C(=O)N[C@@H](CCC(=O)O)C(=O)N[C@@H](CCC(N)=O)C(=O)N[C@@H](C)C(=O)N[C@@H](CCCNC(=N)N)C(=O)N[C@@H](C)C(=O)N[C@@H](CCCNC(=N)N)C(=O)N[C@@H](C)C(=O)N[C@@H](C)C(=O)N[C@@H](CCCNC(=N)N)C(=O)N[C@@H](CCC(=O)O)C(=O)N[C@@H](CCC(N)=O)C(=O)N[C@@H](C)C(=O)N[C@@H](CCCCNC(=O)COCCOCCNC(=O)COCCOCCNC(=O)CC[C@H](NC(=O)CC[C@H](NC(=O)CCCCCCCCCCCCCCCCCCC(=O)O)C(=O)O)C(=O)O)C(=O)N[C@H](C(=O)N[C@@H](CC(N)=O)C(=O)N[C@@H](C)C(=O)N[C@@H](CCC(=O)O)C(=O)N[C@H](C(=O)N[C@@H](CC(C)C)C(=O)N[C@@H](C)C(=O)N[C@@H](CCC(=O)O)C(=O)N[C@H](C(N)=O)C(C)C)[C@@H](C)CC)[C@@H](C)O)[C@@H](C)CC)[C@@H](C)CC)C(C)C)C(C)C [SEQ ID NO: 3] (H-IVLSLDVPIGLLQILLEQARARAAREQAK([AEEA-AEEA-γGlu-γGlu-C20 diacid])TNAEILAEV-NH2) | No | -6.1% | -15% | 17.5 | 13.5 | No | -6.1% | -15% | 43.1% | < 0.01 L/h/kg | 13.5 h | 0.141 µM | 24 h | 11.4 h
